Assay results: patent US10259847B2, “Beta-hairpin peptidomimetics” (POLYPHOR AG, priority 2014, dated 2019)
Read-outs that look alike come from different tables or passages of the source. Where a SMILES comes first, the peptide text is derived from it. Bridges are numbered along the chain shown (N, C = ends). [ ]: non-standard residue; d: D form. Tle = CC(C)(C)[C@H](N)C(=O)O; dDab = NCC[C@@H](N)C(=O)O; hCys = N[C@@H](CCS)C(=O)O; Orn = NCCC[C@H](N)C(=O)O; Dab = NCC[C@H](N)C(=O)O; Dap = NC[C@H](N)C(=O)O

Key:
Type in all cases: cell-based
[1] = test system: Acinetobacter baumannii DSM 30008
Outline: (§1)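 Peptide MICs were determined by NCCLS broth microdilution in cation-adjusted Mueller-Hinton II broth. Inoculum was about 10^6 CFU/mL, matched to 0.5 McFarland, with peptides in two-fold serial dilutions. The broth contained Polysorbate 80 at 0.002% final concentration.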

[2] = test system: Escherichia coli ATCC 25922
Outline: as §1

[3] = test system: Klebsiella pneumoniae ATCC 13883
Outline: as §1

[4] = test system: human red blood cells (hRBC); experiment: Hemolysis of human red blood cells
Procedure: Stock solutions were kept at +4° C., light protected.
Percent hemolysis was calculated as follows: (OD540peptide/OD540H2O)×100%.

[5] = Mueller-Hinton broth II, 0.002% P-80, 18-20 hours at 35° C.

Q: What does the source list for `CC(C)C[C@@H]1NC(=O)[C@H](CCN)NC(=O)[C@H]2CCCN2C(=O)[C@H](C(C)C)NC(=O)[C@@H]2CSSC[C@H](NC1=O)C(=O)N[C@@H](Cc1ccc(O)cc1)C(=O)N[C@@H](C)C(=O)N[C@@H](CCCN)C(=O)N[C@H](CCN)C(=O)N[C@@H](CCN)C(=O)N[C@@H](Cc1c[nH]c3ccccc13)C(=O)N[C@@H](C)C(=O)N[C@@H](C(C)C)C(=O)N2` [Example 5, cyclo(-Leu-Cys-Tyr-Ala-Orn-^DDab-Dab-Trp-Ala-Val-Cys-Val-^DPro-Dab-)] (HELM PEPTIDE1{A.[Orn].[NCC[C@@H](N[*:1])C(=O)[*:2]].[Dab].W.A.V.C.V.[dP].[Dab].L.C.Y}$PEPTIDE1,PEPTIDE1,8:R3-13:R3|PEPTIDE1,PEPTIDE1,1:R1-14:R2$$$V2.0)?
A: Acinetobacter baumannii DSM 30008 MIC ([1]; DSM 30008): 1 µg/mL; Escherichia coli ATCC 25922 MIC ([2]; ATCC 25922): 2 µg/mL; Klebsiella pneumoniae ATCC 13883 MIC ([3]; ATCC 13883): 2 µg/mL; Hemolysis at 100 μg/mL ([4]; red cells of human, 1 h, 100): 3%

Q: With `CC(C)[C@@H]1NC(=O)[C@@H]2CCCN2C(=O)[C@H]2CCCN2C(=O)[C@H](CO)NC(=O)[C@@H]2CSSCC[C@H](NC1=O)C(=O)N[C@@H](Cc1ccc(O)cc1)C(=O)N[C@@H](CCN)C(=O)N[C@@H](CN)C(=O)N[C@H](CCN)C(=O)N[C@@H](CCN)C(=O)N[C@@H](Cc1c[nH]c3ccccc13)C(=O)N[C@@H](CCN)C(=O)N[C@@H](C(C)(C)C)C(=O)N2` [Example 39, cyclo(-Val-Hcy-Tyr-Dab-Dap-^DDab-Dab-Trp-Dab-tBuGly-Cys-Ser-^DPro-Pro-)] (cyclo(V[hCys]Y[Dab][Dap][dDab][Dab]W[Dab][Tle]CS[dP]P); disulfide 2-11) as the compound, how does the “Acinetobacter baumannii DSM 30008 MIC” value ([1]; DSM 30008) read?
A: 2 µg/mL

Q: And the “Escherichia coli ATCC 25922 MIC” value ([2]; ATCC 25922)?
A: 1 µg/mL

Q: And the “Klebsiella pneumoniae ATCC 13883 MIC” value ([3]; ATCC 13883)?
A: 1 µg/mL

Q: And the “Hemolysis at 100 μg/mL” value ([4]; red cells of human, 1 h, 100)?
A: 2%

Q: What does the source list for `CC(C)C[C@@H]1NC(=O)[C@H](CCN)NC(=O)[C@H]2CCCN2C(=O)[C@H](C(C)C)NC(=O)[C@@H]2CSSC[C@H](NC1=O)C(=O)N[C@@H](Cc1ccc(O)cc1)C(=O)N[C@@H](C)C(=O)N[C@@H](CCN)C(=O)N[C@H](CCN)C(=O)N[C@@H](CCN)C(=O)N[C@@H](Cc1c[nH]c3ccccc13)C(=O)N[C@@H](C)C(=O)N[C@@H](C(C)C)C(=O)N2` [Example 2, cyclo(-Leu-Cys-Tyr-Ala-Dab-^DDab-Dab-Trp-Ala-Val-Cys-Val-^DPro-Dab-)] (HELM PEPTIDE1{A.[Dab].[NCC[C@@H](N[*:1])C(=O)[*:2]].[Dab].W.A.V.C.V.[dP].[Dab].L.C.Y}$PEPTIDE1,PEPTIDE1,8:R3-13:R3|PEPTIDE1,PEPTIDE1,1:R1-14:R2$$$V2.0)?
A: Acinetobacter baumannii DSM 30008 MIC ([1]; DSM 30008): 2.5 µg/mL; Escherichia coli ATCC 25922 MIC ([2]; ATCC 25922): 2 µg/mL; Klebsiella pneumoniae ATCC 13883 MIC ([3]; ATCC 13883): 2 µg/mL; Hemolysis at 100 μg/mL ([4]; red cells of human, 1 h, 100): 3%

Q: How did the “Acinetobacter baumannii DSM 30008 MIC” value ([1]; DSM 30008) turn out when `CC(C)[C@@H]1NC(=O)[C@@H]2CCCN2C(=O)[C@H]2CCCN2C(=O)[C@H](CO)NC(=O)[C@@H]2CC(=O)NCC[C@H](NC1=O)C(=O)N[C@@H](Cc1ccc(O)cc1)C(=O)N[C@@H](CCN)C(=O)N[C@@H](CCN)C(=O)N[C@H](CCN)C(=O)N[C@@H](CCN)C(=O)N[C@@H](Cc1c[nH]c3ccccc13)C(=O)N[C@@H](CCN)C(=O)N[C@@H](c1ccccc1)C(=O)N2` [Example 16, cyclo(-Val-Dab-Tyr-Dab-Dab-^DDab-Dab-Trp-Dab-Phg-Asp-Ser-^DPro-Pro-)] (HELM PEPTIDE1{V.[Dab].Y.[Dab].[Dab].[NCC[C@@H](N[*:1])C(=O)[*:2]].[Dab].W.[Dab].[Phg].D.S.[dP].P}$PEPTIDE1,PEPTIDE1,2:R3-11:R3|PEPTIDE1,PEPTIDE1,1:R1-14:R2$$$V2.0) was run?
A: 1 µg/mL

Q: And the “Escherichia coli ATCC 25922 MIC” value ([2]; ATCC 25922)?
A: 0.5 µg/mL

Q: What about the “Klebsiella pneumoniae ATCC 13883 MIC” value ([3]; ATCC 13883) of the same compound?
A: 0.5 µg/mL

Q: And the “Hemolysis at 100 μg/mL” value ([4]; red cells of human, 1 h, 100)?
A: 1%

Q: Which results are given for `CC(C)C[C@@H]1NC(=O)[C@@H]2CCCN2C(=O)[C@H]2CCCN2C(=O)[C@H](CO)NC(=O)[C@@H]2CCCCNC(=O)C[C@H](NC1=O)C(=O)N[C@@H](Cc1ccc(O)cc1)C(=O)N[C@@H](CCN)C(=O)N[C@@H](CCCN)C(=O)N[C@H](CCN)C(=O)N[C@@H](CCN)C(=O)N[C@@H](Cc1c[nH]c3ccccc13)C(=O)N[C@@H](CCN)C(=O)N[C@@H](C(C)(C)C)C(=O)N2` [Example 24, cyclo(-Leu-Asp-Tyr-Dab-Orn-^DDab-Dab-Trp-Dab-tBuGly-Lys-Ser-^DPro-Pro-)] (HELM PEPTIDE1{L.D.Y.[Dab].[Orn].[NCC[C@@H](N[*:1])C(=O)[*:2]].[Dab].W.[Dab].[CC(C)(C)[C@H](N[*:1])C(=O)[*:2]].K.S.[dP].P}$PEPTIDE1,PEPTIDE1,2:R3-11:R3|PEPTIDE1,PEPTIDE1,1:R1-14:R2$$$V2.0)?
A: Acinetobacter baumannii DSM 30008 MIC ([1]; DSM 30008): 1 µg/mL; Escherichia coli ATCC 25922 MIC ([2]; ATCC 25922): 0.5 µg/mL; Klebsiella pneumoniae ATCC 13883 MIC ([3]; ATCC 13883): 0.5 µg/mL; Hemolysis at 100 μg/mL ([4]; red cells of human, 1 h, 100): 0.5%

Q: Which “Acinetobacter baumannii DSM 30008 MIC” value ([1]; DSM 30008) does the source give for `C[C@@H]1NC(=O)[C@H](C(C)(C)C)NC(=O)[C@H](CCN)NC(=O)[C@H](Cc2c[nH]c3ccccc23)NC(=O)[C@H](CCN)NC(=O)[C@@H](CCN)NC(=O)[C@H](CCCN)NC(=O)[C@H](CCN)NC(=O)[C@H](Cc2ccc(O)cc2)NC(=O)[C@H](CN)NC(=O)[C@H](Cc2ccccc2)NC(=O)[C@H](Cc2ccc(O)cc2)NC(=O)[C@H]2CCCN2C(=O)[C@H](CO)NC1=O` [Example 44, cyclo(-Phe-Dap-Tyr-Dab-Orn-^DDab-Dab-Trp-Dab-tBuGly-Ala-Ser-^DPro-Tyr-)] (cyclo(AS[dP]YF[Dap]Y[Dab][Orn][dDab][Dab]W[Dab][Tle])) here?
A: 1 µg/mL

Q: And the “Escherichia coli ATCC 25922 MIC” value ([2]; ATCC 25922)?
A: 0.5 µg/mL

Q: What about the “Klebsiella pneumoniae ATCC 13883 MIC” value ([3]; ATCC 13883) of the same compound?
A: 0.25 µg/mL

Q: And the “Hemolysis at 100 μg/mL” value ([4]; red cells of human, 1 h, 100)?
A: 0%

Q: `CC(C)(C)[C@@H]1NC(=O)[C@H](CCN)NC(=O)[C@H](Cc2c[nH]c3ccccc23)NC(=O)[C@H](CCN)NC(=O)[C@H](CCN)NC(=O)[C@H](CCN)NC(=O)[C@H](CCN)NC(=O)[C@H](Cc2ccc(O)cc2)NC(=O)[C@@H]2CCNC(=O)C[C@H](NC1=O)C(=O)N[C@@H](CO)C(=O)N1CC[C@@H]1C(=O)N1CCC[C@H]1C(=O)N[C@@H](Cc1c[nH]c3ccccc13)C(=O)N2` [Example 15, cyclo(-Trp-Dab-Tyr-Dab-Dab-Dab-Dab-Trp-Dab-tBuGly-Asp-Ser-^DAzt-Pro-)] (HELM PEPTIDE1{D.S.[O=C([C@H]1CCN1[*:1])[*:2]].P.W.[Dab].Y.[Dab].[Dab].[Dab].[Dab].W.[Dab].[CC(C)(C)[C@H](N[*:1])C(=O)[*:2]]}$PEPTIDE1,PEPTIDE1,1:R3-6:R3|PEPTIDE1,PEPTIDE1,1:R1-14:R2$$$V2.0) was tested. Which “Acinetobacter baumannii DSM 30008 MIC” value ([1]; DSM 30008) did it give?
A: 0.5 µg/mL

Q: And the “Escherichia coli ATCC 25922 MIC” value ([2]; ATCC 25922)?
A: 0.25 µg/mL

Q: What about the “Klebsiella pneumoniae ATCC 13883 MIC” value ([3]; ATCC 13883) of the same compound?
A: 0.25 µg/mL

Q: What about the “Hemolysis at 100 μg/mL” value ([4]; red cells of human, 1 h, 100) of the same compound?
A: 1%

Q: Which “Acinetobacter baumannii DSM 30008 MIC” value ([1]; DSM 30008) does the source give for `CC(C)C[C@@H]1NC(=O)[C@@H]2CCCN2C(=O)[C@H]2CCCN2C(=O)[C@H](CO)NC(=O)[C@@H]2CCC(=O)NC[C@H](NC1=O)C(=O)N[C@@H](Cc1ccc(O)cc1)C(=O)N[C@@H](CCN)C(=O)N[C@@H](CCCN)C(=O)N[C@@H](CCN)C(=O)N[C@@H](CCN)C(=O)N[C@@H](Cc1c[nH]c3ccccc13)C(=O)N[C@@H](CCN)C(=O)N[C@@H](C(C)(C)C)C(=O)N2` [Example 26, cyclo(-Leu-Dap-Tyr-Dab-Orn-Dab-Dab-Trp-Dab-tBuGly-Glu-Ser-^DPro-Pro-)] (HELM PEPTIDE1{L.[O=C([C@H](CN[*:3])N[*:1])[*:2]].Y.[Dab].[Orn].[Dab].[Dab].W.[Dab].[CC(C)(C)[C@H](N[*:1])C(=O)[*:2]].E.S.[dP].P}$PEPTIDE1,PEPTIDE1,2:R3-11:R3|PEPTIDE1,PEPTIDE1,1:R1-14:R2$$$V2.0) here?
A: 4 µg/mL

Q: And the “Escherichia coli ATCC 25922 MIC” value ([2]; ATCC 25922)?
A: 4 µg/mL

Q: What about the “Klebsiella pneumoniae ATCC 13883 MIC” value ([3]; ATCC 13883) of the same compound?
A: 1 µg/mL

Q: And the “Hemolysis at 100 μg/mL” value ([4]; red cells of human, 1 h, 100)?
A: 0%

Q: Which “Acinetobacter baumannii DSM 30008 MIC” value [1, 5] does the source give for `CC(C)[C@@H]1NC(=O)[C@@H]2CCCN2C(=O)[C@H]2CCCN2C(=O)[C@H](CO)NC(=O)[C@H]2CSSC[C@@H](NC1=O)C(=O)N[C@@H](Cc1ccc(O)cc1)C(=O)N[C@@H](CCN)C(=O)N[C@@H](CN)C(=O)N[C@H](CCN)C(=O)N[C@@H](CCN)C(=O)N[C@@H](Cc1c[nH]c3ccccc13)C(=O)N[C@@H](CCN)C(=O)N[C@@H](C(C)(C)C)C(=O)N2` [Example 38, cyclo(-Val-^DCys-Tyr-Dab-Dap-^DDab-Dab-Trp-Dab-tBuGly-^DCys-Ser-^DPro-Pro-)] (cyclo(V[dC]Y[Dab][Dap][dDab][Dab]W[Dab][Tle][dC]S[dP]P); disulfide 2-11) here?
A: 2 µg/mL

Q: And the “Escherichia coli ATCC 25922 MIC” value [2, 5]?
A: 4 µg/mL

Q: What about the “Klebsiella pneumoniae ATCC 13883 MIC” value [3, 5] of the same compound?
A: 2 µg/mL

Q: What about the “Hemolysis at 100 μg/mL” value ([4]; 100 μg/mL, 20% hRBC (v/v), 1 h at 37° C.) of the same compound?
A: 2%
